Source: patent publication US20240024500A1, “ELECTROSTATIC NANOPARTICLES AND USE THEREOF” (Westfaelische Wilhelms-Universitaet Muenster, priority 2020, published 2024)
Like-named read-outs stand apart in the source and are kept apart here.

Tests used:
[1] = tested on: HBL-1 cells; assay: Colony formation assay, HBL-1, ibrutinib-Cy3.5 cargo; type: cell-based
Method: Next, we planned functional assays for identifying the effectivity of the antibody-inhibitor-complexes. DLBCL tumor cells were seeded in methylcellulose to form anchorage-free colony growth as a substitute marker for tumorigenicity. Assays were treated with combinations of antibody-inhibitor complexes and compared with appropriate control groups.
This colony-assay is used for quantification of anchorage-independent clonal cell growth and is a standard in vitro surrogate for tumorigenicity in vivo.

[2] = Cell-free vesicle formation, light/fluorescence microscopy; type: physicochemical; settings: charged vs uncharged cargo, modified vs unmodified antibody
Method: Based upon these measurements, we hypothesized that the antibody-protamine/free SMCC-protamine/siRNA complexes form outside cells and independently of a cellular context. […]
We further analysed the properties of the different conjugation products according to their capacity to form vesicular-structures without cells when these conjugation products were incubated with Alexa488-control-siRNA (FIG. 40 G-L) as well as with EGFR-positive A459 cells (FIG. 40 M-R). When cetuximab was conjugated with SMCC-protamine at ratios of 1:1 up to 1:10, no efficient cell-free vesicle formation could be observed (FIG. 40 G-I), while at the ratio 1:32, the vesicle formation was very abundant FIG. 40 J) and decreased at ratios 1:50 and 1:100 (FIG. 40 K-L). The internalisation capacity of these complexes was highest upon conjugation 1:32 (FIG. 40 P), decrease upon conjugation 1:10 (FIG. 40 O). […] This hinted at an optimal complex formation of cetuximab with SMCC-protamine of 1:32, since this lead to the most efficient conjugation, vesicle formation without cells and internalisation into cells.
To further elucidate the function of SMCC-protamine coupled to the antibody and as free molecule within the complex, we titrated the amount of SMCC-protamine added to the antibody-protamine-conjugates that were depleted from free SMCC-protamine by HPLC. […] We added different amounts of free SMCC-protamine and protamine alone to anti-EGFR-mAB-P (FIG. 41).

[3] = tested on: HBL-1 DLBCL-cells; assay: NSG-HBL1 xenograft model; settings: after treatment start
[4] = target: EGFR (epidermal growth factor receptor) on cells (UniProt P00533); assay: cell-based or functional assay

Compound | colony formation of HBL-1 cells [1] | nanoparticle formation with antibody carriers [2] | nanoparticle formation with antibody carriers ([2]; listed as uncharged ibrutinib) | day by which all / the last mice had to be sacrificed [3] | Alexa488-siRNA shuttled into RD cells (FACS) [4] | internalisation of Alexa488-siRNA into RD cells (FACS) [4] | colony formation of HBL-1 cells ([1]; listed as unconjugated rituximab) | colony formation of HBL-1 cells ([1]; listed as unmodified rituximab (αCD20-mAB))
C=CC(=O)N1CCC[C@@H](n2nc(-c3ccc(Oc4ccccc4)cc3)c3c(N)ncnc32)C1 [ibrutinib, 1-[(3R)-3-[4-amino-3-(4-phenoxyphenyl)pyrazolo[3,4-d]pyrimidin-1-yl]piperidin-1-yl]prop-2-en-1-one] | much lesser degree | not seen | not | 20 days | – | – | – | –
cetuximab-SMCC-protamine conjugate (anti-EGFR-mAB-protamine, used with free SMCC-protamine) (antibody) | – | – | – | – | > 90 % of cells | < 90 % of cells | – | –
rituximab: anti-CD20 antibody | – | not seen | – | ≤ 16 days | – | – | only a mild effect | not
